According to US20250250629A1, “NUCLEOTIDE CYCLIC CLEAVABLE MOIETIES AND USES THEREOF” (Singular Genomics Systems, Inc., priority 2022, published 2025):

Assay: Storage stability of reversibly terminated nucleotides (percentage of deblocked nucleotides, in-house assay)
Type: physicochemical
Details: for percentage of deblocked nucleotides (3′-OH, loss of reversible terminator) over time: stored at 20° C. over 21 days (vs. 4° C.)
Experimental: FIGS. 1A-1B depict storage stability studies of nucleotides stored at both 4° C. and 20° C. over a period of 21 days. The stability of the reversibly terminated nucleotide can be measured by the % of nucleotides that lose the reversible terminator moiety (e.g., via spontaneous fragmentation or reduction to yield a 3′-OH). […] (black) and 20° C. (light). […] (black) and 20° C. (light).
The stability of a reversibly terminated nucleotide can be measured by determining the loss of the reversible terminator over time. FIGS. 1A-1B depict the storage stability of nucleotides having a linear disulfide RT and cyclic disulfide RT stored at both 4° C. and 20° C. over a period of 21 days. The linear disulfide RT tested has the structure:
A buffer containing 200 nM of each nucleotide was stored at 4° C. and 20° C. over a period of 21 days and the percentage of deblocked nucleotides (i.e., those having loss of 3′-OH reversible terminator) was determined using an in-house assay. The stability of the reversibly terminated nucleotide can be measured by the % of nucleotides that lose the reversible terminator moiety (e.g., via spontaneous fragmentation or reduction to yield a 3′-OH). […] (black) and 20° C. (light). […] (black) and 20° C. (light). As observed in FIG. 1A, the average percentage of reversible terminator loss is about 0.13%+/−0.05% when stored at 4° C., and is considered relatively stable when stored under these conditions. […] Subsequent storage stability studies indicate the nucleotides are stable, wherein the average percentage of reversible terminator loss is less than about 0.15%, beyond 120 days at both 20° C. and 4° C.

[1] = buffer containing 200 nM nucleotide

With `CSSC(C)OC1CC(n2cc(C)c(=O)[nH]c2=O)OC1COP(=O)(O)OP(=O)(O)OP(=O)(O)O` (centres unmarked) [linear disulfide RT, reference compound] the “average percentage of reversible terminator loss” value (buffer containing 200 nM nucleotide, stored at 4° C. over 21 days) was “about 0.13%+/−0.05” and the “percentage of deblocked nucleotides (3′-OH, loss of reversible terminator) over time” value [1] was “grows over time”.

For `Cc1cn(C2CC(OC3CCCSS3)C(COP(=O)(O)OP(=O)(O)OP(=O)(O)O)O2)c(=O)[nH]c1=O` (centres unmarked) [cyclic disulfide RT], the “percentage of deblocked nucleotides (3′-OH, loss of reversible terminator) over time” value [1] was “less prone to spontaneously losing the 3′ reversible terminator”, the “average percentage of reversible terminator loss” value (subsequent storage stability studies, beyond 120 days at 4° C.) was “less than 0.15%” and the “average percentage of reversible terminator loss” value (subsequent storage stability studies, beyond 120 days at 20° C.) was “less than 0.15%”.
